Laboratory results as given in ChEMBL document CHEMBL3425467, “Synthesis, cytotoxicity and haemolytic activity of Pulsatilla saponin A, D derivatives” (Bioorg Med Chem Lett, 2015).

Legend:
A549 = assay: Cytotoxicity against human A549 cells assessed as inhibition of cell growth after 24 hrs by MTT assay; assay type: functional, cell-based; settings: A549, 24 h
[1] = Ratio of hemolytic HD50 for PSD to hemolytic HD50 for compound in rabbit RBC; assay type: ADME, cell-based, Oryctolagus cuniculus; settings: erythrocyte
[2] = Cytotoxicity against human Bel7402 cells assessed as inhibition of cell growth after 24 hrs by MTT assay; assay type: functional, cell-based; settings: Bel-7402, 24 h
SMMC-7721 = assay: Cytotoxicity against human SMMC7721 cells assessed as inhibition of cell growth after 24 hrs by MTT assay; assay type: functional, cell-based; settings: SMMC-7721, 24 h
[3] = Hemolytic activity in rabbit RBC assessed as induction of hemolysis; assay type: cell-based, Oryctolagus cuniculus, Erythrocyte; settings: red blood cells, read-out: HD50 (the source's name)
[4] = Cytotoxicity against human HL7702 cells assessed as inhibition of cell growth after 24 hrs by MTT assay; assay type: cell-based; settings: L02, 24 h
[5] = Induction of hemolysis in erythrocytes (unknown origin); assay type: cell-based, Erythrocyte; settings: read-out: HD50 (the source's name)

| Compound | IC50 (A549) [µM] | Ratio [1] | IC50 [2] [µM] | IC50 (SMMC-7721) [µM] | HC50 [3] [µM] | IC50 [4] [µM] | HC50 [5] [µM] |
| --- | --- | --- | --- | --- | --- | --- | --- |
| C[C@@H]1O[C@@H](O[C@H]2[C@H](O[C@H]3CC[C@@]4(C)[C@@H](CC[C@]5(C)[C@@H]4CC=C4[C@@H]6CC(C)(C)CC[C@]6(C(=O)NCC(=O)O)CC[C@]45C)[C@]3(C)CO)OC[C@H](O[C@@H]3O[C@H](CO)[C@@H](O)[C@H](O)[C@H]3O)[C@@H]2O)[C@H](O)[C@H](O)[C@H]1O | 5.7 | 20 | 4.3 | 1.6 | 160 | 1.5 | – |
| C[C@@H]1O[C@@H](O[C@H]2[C@H](O[C@H]3CC[C@@]4(C)[C@@H](CC[C@]5(C)[C@@H]4CC=C4[C@@H]6CC(C)(C)CC[C@]6(C(=O)N6CCN(CCC(=O)O)CC6)CC[C@]45C)[C@]3(C)CO)OC[C@H](O[C@@H]3O[C@H](CO)[C@@H](O)[C@H](O)[C@H]3O)[C@@H]2O)[C@H](O)[C@H](O)[C@H]1O | 1.9 | 20 | 9.8 | 14.5 | 119 | 1.3 | – |
| C[C@@H]1O[C@@H](O[C@H]2[C@H](O[C@H]3CC[C@@]4(C)[C@@H](CC[C@]5(C)[C@@H]4CC=C4[C@@H]6CC(C)(C)CC[C@]6(C(=O)N[C@H](CO)C(=O)O)CC[C@]45C)[C@]3(C)CO)OC[C@H](O[C@@H]3O[C@H](CO)[C@@H](O)[C@H](O)[C@H]3O)[C@@H]2O)[C@H](O)[C@H](O)[C@H]1O | 72.3 | 20 | 93.1 | > 100 | 60.3 | > 100 | – |
| C[C@@H]1O[C@@H](O[C@H]2[C@H](O[C@H]3CC[C@@]4(C)[C@@H](CC[C@]5(C)[C@@H]4CC=C4[C@@H]6CC(C)(C)CC[C@]6(C(=O)O)CC[C@]45C)[C@]3(C)CO)OC[C@H](O)[C@@H]2O)[C@H](O)[C@H](O)[C@H]1O [ALPHA-HEDERIN] | 15.3 | – | 13.2 | 10.8 | 7.5 | 11.5 | 10 |
| C[C@@H]1O[C@@H](O[C@H]2[C@H](O[C@H]3CC[C@@]4(C)[C@@H](CC[C@]5(C)[C@@H]4CC=C4[C@@H]6CC(C)(C)CC[C@]6(C(=O)O)CC[C@]45C)[C@]3(C)CO)OC[C@H](O[C@@H]3O[C@H](CO)[C@@H](O)[C@H](O)[C@H]3O)[C@@H]2O)[C@H](O)[C@H](O)[C@H]1O [HEDERACOLCHISIDE A] | 6.3 | – | 8.9 | 7.6 | 6.3 | 12.6 | 22 |
